According to BigSolDB 2.1:

CC1=NN(c2ccccc2)C(=O)C1
solubility (mole fraction)
Conditions	273.15 K	278.15 K	283.15 K	288.15 K	293.15 K	298.15 K	303.15 K	308.15 K	313.15 K
in acetonitrile	0.00554	0.00717	0.0092	0.0116	0.0144	0.018	0.0218	0.0265	0.0314
in ethanol	0.0172	0.0197	0.0226	0.0253	0.0285	0.0321	0.0358	0.0397	0.0445
in ethyl acetate	0.0152	0.0173	0.0196	0.0223	0.0253	0.0284	0.0323	0.0368	0.0419
in methanol	0.0108	0.013	0.0153	0.0179	0.0208	0.0238	0.0274	0.0312	0.0354
in n-propanol	0.0199	0.0222	0.0249	0.028	0.0317	0.0353	0.0393	0.0433	0.0472
